Values of other authors as cited in US20080280955A1, “Methods and compositions for screening and treatment of disorders of blood glucose regulation” (Perlegen Sciences, Inc., priority 2005, published 2008).

Key:
PPAR-alpha = target: T1, PPAR-alpha (Homo sapiens, UniProt Q07869)
T1 sequence (Q07869 1-468): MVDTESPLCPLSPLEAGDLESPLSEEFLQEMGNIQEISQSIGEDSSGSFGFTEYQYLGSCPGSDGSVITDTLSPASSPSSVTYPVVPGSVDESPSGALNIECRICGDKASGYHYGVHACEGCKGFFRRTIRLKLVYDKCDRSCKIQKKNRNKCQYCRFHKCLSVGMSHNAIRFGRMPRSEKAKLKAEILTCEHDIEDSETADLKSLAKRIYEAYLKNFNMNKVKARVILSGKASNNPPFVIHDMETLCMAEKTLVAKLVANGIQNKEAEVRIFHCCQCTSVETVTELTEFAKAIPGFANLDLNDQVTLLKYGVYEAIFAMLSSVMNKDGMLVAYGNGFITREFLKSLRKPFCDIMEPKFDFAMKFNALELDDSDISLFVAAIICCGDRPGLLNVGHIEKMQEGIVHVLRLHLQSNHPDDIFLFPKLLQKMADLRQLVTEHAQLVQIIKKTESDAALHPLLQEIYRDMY

PPAR-gamma = target: T2, PPAR-gamma (Homo sapiens, UniProt P37231); conditions: context-specific, depends on cell type
T2 sequence (P37231 1-505): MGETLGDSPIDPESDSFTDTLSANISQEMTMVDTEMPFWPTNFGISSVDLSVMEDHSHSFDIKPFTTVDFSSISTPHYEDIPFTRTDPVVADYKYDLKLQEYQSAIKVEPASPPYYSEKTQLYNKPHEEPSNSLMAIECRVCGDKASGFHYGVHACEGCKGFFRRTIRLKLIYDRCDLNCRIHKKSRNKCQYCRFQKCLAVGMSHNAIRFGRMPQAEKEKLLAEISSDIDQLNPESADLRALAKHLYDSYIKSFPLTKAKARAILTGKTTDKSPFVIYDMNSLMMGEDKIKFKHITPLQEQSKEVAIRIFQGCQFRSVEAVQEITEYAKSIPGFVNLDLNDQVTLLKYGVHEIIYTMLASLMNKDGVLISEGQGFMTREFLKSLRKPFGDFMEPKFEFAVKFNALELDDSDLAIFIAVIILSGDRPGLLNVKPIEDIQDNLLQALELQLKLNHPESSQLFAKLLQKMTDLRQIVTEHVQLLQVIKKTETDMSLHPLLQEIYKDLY

PPAR-delta = target: T3, PPAR-delta (Homo sapiens, UniProt Q03181)
T3 sequence (Q03181 1-441): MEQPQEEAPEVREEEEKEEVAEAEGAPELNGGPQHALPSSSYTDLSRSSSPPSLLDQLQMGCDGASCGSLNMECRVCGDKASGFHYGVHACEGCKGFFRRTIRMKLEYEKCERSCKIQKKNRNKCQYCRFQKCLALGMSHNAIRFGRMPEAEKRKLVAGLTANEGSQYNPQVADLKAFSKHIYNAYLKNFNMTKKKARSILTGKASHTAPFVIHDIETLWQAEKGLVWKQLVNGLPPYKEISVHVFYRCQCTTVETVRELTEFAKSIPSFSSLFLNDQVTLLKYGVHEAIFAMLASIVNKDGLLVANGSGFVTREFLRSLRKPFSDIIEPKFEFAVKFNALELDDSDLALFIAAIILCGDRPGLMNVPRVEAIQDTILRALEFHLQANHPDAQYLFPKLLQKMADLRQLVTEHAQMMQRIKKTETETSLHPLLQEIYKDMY

modulation of PPAR-alpha (PPAR-alpha): appears to modulate
modulation of PPAR-delta (PPAR-delta): appears to modulate
SMILES: O=C1NC(=O)C(Cc2ccc3cc(OCc4ccccc4F)ccc3c2)S1 (centres unmarked) [netoglitazone, 5-[{6-(2-fluorobenzyl)oxy-2-naphthyl}methyl]-2,4-thiazolidinedione]
efficacy in lowering plasma glucose, insulin, and triglyceride levels (compared with pioglitazone and troglitazone): more efficacious than pioglitazone and troglitazone
potency relative to rosiglitazone (compared with rosiglitazone): about three-fold
behaviour at PPAR-gamma (PPAR-gamma): full agonist of PPAR-gamma and as a partial agonist or antagonist in others
